# Data from US10328128B2, “Treatment of infection by human enterovirus D68” (priority 2014, dated 2019).
# Like-named read-outs stand apart in the source and are kept apart here.
# B1: DAS181: fusion protein of the catalytic domain of A. viscosus sialidase and a human amphiregulin GAG-binding anchoring domain (SEQ ID NOs: 15 and 16) (protein)
# chain: MGDHPQATPAPAPDASTELPASMSQAQHLAANTATDNYRIPAITTAPNGDLLISYDERPKDNGNGGSDAPNPNHIVQRRSTDGGKTWSAPTYIHQGTETGKKVGYSDPSYVVDHQTGTIFNFHVKSYDQGWGGSRGGTDPENRGIIQAEVSTSTDNGWTWTHRTITADITKDKPWTARFAASGQGIQIQHGPHAGRLVQQYTIRTAGGAVQAVSVYSDDHGKTWQAGTPIGTGMDENKVVELSDGSLMLNSRASDGSGFRKVAHSTDGGQTWSEPVSDKNLPDSVDNAQIIRAFPNAAPDDPRAKVLLLSHSPNPRPWSRDRGTISMSCDDGASWTTSKVFHEPFVGYTTIAVQSDGSIGLLSEDAHNGADYGGIWYRNFTMNWLGEQCGQKPAKRKKKGGKNGKNRRNRKKKNPGDHPQATPAPAPDASTELPASMSQAQHLAANTATDNYRIPAITTAPNGDLLISYDERPKDNGNGGSDAPNPNHIVQRRSTDGGKTWSAPTYIHQGTETGKKVGYSDPSYVVDHQTGTIFNFHVKSYDQGWGGSRGGTDPENRGIIQAEVSTSTDNGWTWTHRTITADITKDKPWTARFAASGQGIQIQHGPHAGRLVQQYTIRTAGGAVQAVSVYSDDHGKTWQAGTPIGTGMDENKVVELSDGSLMLNSRASDGSGFRKVAHSTDGGQTWSEPVSDKNLPDSVDNAQIIRAFPNAAPDDPRAKVLLLSHSPNPRPWSRDRGTISMSCDDGASWTTSKVFHEPFVGYTTIAVQSDGSIGLLSEDAHNGADYGGIWYRNFTMNWLGEQCGQKPAKRKKKGGKNGKNRRNRKKKNP
# How the values were obtained:
# [1] = tested on: EV-D68 1962 prototype strain (Fermon); test: CPE inhibition assay in RD cells; type: cell-based, Human enterovirus D68; settings: read-out: Mean EC50 ± SD
# [2] = tested on: EV-D68 strain USA-IL/18956; test: CPE inhibition assay in RD cells; type: cell-based, Human enterovirus D68; settings: read-out: Mean EC50 ± SD
# [3] = tested on: EV-D68 strain USA-MO/18949; test: CPE inhibition assay in RD cells; type: cell-based, Human enterovirus D68; settings: read-out: Mean EC50 ± SD
# [4] = tested on: EV-D68 strain USA-MO/18947; test: CPE inhibition assay in RD cells; type: cell-based, Human enterovirus D68; settings: read-out: Mean EC50 ± SD
# four EV-D68 strains = test: microbe, parasite or virus in culture; type: cell-based, Human enterovirus D68; settings: for activity against EV-D68 strains in words: highest concentration tested 10 μM; for EC50: read-out: EC50 values, range over all four EV-D68 strains
# [5] = typical fluoxetine dosing; cited from earlier work
# EV-D68 Fermon strain = test: CPE inhibition assay over a range of virus doses; type: cell-based, Human enterovirus D68; settings: Enterovirus D, EVD68; Fermon strain, 100-fold virus dose range, five half-log dilutions; upper end printed as >10 μM; data not shown; read-out: EC50 values over a range of virus doses
# Procedure: Antiviral activity was assessed in a homogeneous cell-based assay that measured inhibition of viral cytopathic effect in human rhabdomyosarcoma cells (RD; ATCC CCL-136). The viruses included three representative EV-D68 strains from the 2014 outbreak (USA-MO/18947, USA-MO/18949, USA-IL/18956) (Brown et al. 2014. Seven Strains of Enterovirus D68 Detected in the United States during the 2014 Severe Respiratory Disease Outbreak. Genome Announc 2:e01201-01214), as well as the 1962 prototype strain (Fermon) (Schieble et al. 1967. A probable new human picornavirus associated with respiratory diseases. Am J Epidemiol 85:297-310). For the CPE inhibition assay, half-log10 dilutions of drug compound (10 μM to 0.001 μM) were combined with 100 CCID50 (50% cell culture infectious dose) of virus and added to monolayers of RD cells (5000 cells per well) in 384-well, white, flat-bottom microplates. Plates were incubated at 33° C. and 5% CO2 for five days, and cell viability was assessed using ATPLite® (Perkin Elmer, Waltham, Mass.) by adding 15 μL of cell lysis buffer and then 15 μL of substrate solution, following the manufacturer's recommendations.
# In both studies, the methods were somewhat different from our approach. […] For the other compounds tested, similar EC50 values were observed across this same dose range. […]
# [6] = Sialidase activity with fluorogenic substrate 4-MU-NANA; type: biochemical; settings: 37° C.
# Procedure: The sialidase activity of DAS181 was measured using the fluorogenic substrate 4-methylumbelliferyl-N-acetyl-α-D-neuraminic acid (4-MU-NANA; Sigma). One unit of sialidase is defined as the amount of enzyme that releases 10 nmol of MU from 4-MU-NANA in 10 minutes at 37° C. (50 mM CH3COOH—NaOH buffer, pH 5.5) in a reaction that contains 20 nmol of 4-MU-NANA in a 0.2 ml volume (Potier et al., Anal. Biochem., 94:287-296, 1979). The specific activity of DAS181 was determined to be 1,300 U/mg protein (0.77 μg DAS181 protein per unit of activity).
# [7] = tested on: enterovirus D68 strains (EV-D68); test: DAS181 specific anti-viral assay, text summary over all strains and conditions; type: cell-based, Human enterovirus D68; settings: all conditions and all enterovirus strains tested
# Procedure: (§1) As shown in the Table 2, DAS181 was tested to assess antiviral activity of the compound using a cell-based assay, and using enterovirus D68 strains (EV-D68). In this assay, using four specific EV-D68 strains, the compound was added at different time-points to each of the strains. The three time conditions tested were: (i) DAS181 preincubated with cells for 24 h before virus infection; (ii) DAS181 added simultaneously with virus; and (iii) DAS181 added 4 h post-infection. Fermon, an original prototypic strain, was used as control.
# [8] = tested on: EV-D68 strain USA-IL/238139; test: DAS181 specific anti-viral assay, time of addition; type: cell-based, Human enterovirus D68; settings: read-out: DAS181 Mean EC50 ± SD
# Procedure: as §1
# [9] = tested on: EV-D68 strain USA-MO/238121; test: DAS181 specific anti-viral assay, time of addition; type: cell-based, Human enterovirus D68; settings: read-out: DAS181 Mean EC50 ± SD
# Procedure: as §1
# EV-D68 strain Fermon = test: DAS181 specific anti-viral assay, time of addition; type: cell-based, Human enterovirus D68; settings: read-out: DAS181 Mean EC50 ± SD
# Procedure: as §1
# [10] = tested on: EV-D68 strain USA-MO/238102; test: DAS181 specific anti-viral assay, time of addition; type: cell-based, Human enterovirus D68; settings: read-out: DAS181 Mean EC50 ± SD
# Procedure: as §1
# [11] = Enterovirus D, EVD68, RD, 120 h
# [12] = Enterovirus D, EVD68, 120 h, RD cells, 100 CCID50 virus, 33° C., five days, strain Fermon
# [13] = Enterovirus D, EVD68, 120 h, RD cells, 100 CCID50 virus, 33° C., five days, strain USA-IL/18956
# [14] = Enterovirus D, EVD68, 120 h, RD cells, 100 CCID50 virus, 33° C., five days, strain USA-MO/18949
# [15] = Enterovirus D, EVD68, 120 h, RD cells, 100 CCID50 virus, 33° C., five days, strain USA-MO/18947
# [16] = RD cells, 100 CCID50 virus, 33° C., five days, strain Fermon
# [17] = RD cells, 100 CCID50 virus, 33° C., five days, strain USA-IL/18956
# [18] = RD cells, 100 CCID50 virus, 33° C., five days, strain USA-MO/18949
# [19] = RD cells, 100 CCID50 virus, 33° C., five days, strain USA-MO/18947
# [20] = 24 hr preincubation before infection
# [21] = Drug addition 4 hr after infection
# [22] = No preincubation (added simultaneously with virus)
Molecule,"EC50 [1, 11] [nM]","EC50 [2, 11] [nM]","EC50 [3, 11] [nM]","EC50 [4, 11] [nM]","EC50 [1, 12] [nM]","EC50 [2, 13] [nM]","EC50 [3, 14] [nM]","EC50 [4, 15] [nM]",other results
NC12CC3CC(CC(C3)C1)C2 [Amantidine],> 10000,> 10000,> 10000,> 10000,–,–,–,–,–
CCOC(=O)c1c(CSc2ccccc2)n(C)c2cc(Br)c(O)c(CN(C)C)c12 [Arbidol],> 10000,> 10000,> 10000,> 10000,–,–,–,–,–
"NC(=O)c1nc(F)c[nH]c1=O [Favipiravir, favipiravir]",–,–,–,–,> 10000,> 10000,> 10000,> 10000,–
"CNCCC(Oc1ccc(C(F)(F)F)cc1)c1ccccc1 (centres unmarked) [Fluoxetine, fluoxetine]",–,–,–,–,–,–,–,–,activity against EV-D68 strains in words (four EV-D68 strains; RD cells): significant activity; maximal plasma levels [5]: < 200 nM
COc1ccc(CC(C)NCC(O)c2ccc(O)c(NC=O)c2)cc1 (centres unmarked) [Formoterol furmarate],> 10000,> 10000,> 10000,> 10000,–,–,–,–,–
"CCC(C)n1ncn(-c2ccc(N3CCN(c4ccc(OCC5COC(Cn6cncn6)(c6ccc(Cl)cc6Cl)O5)cc4)CC3)cc2)c1=O (centres unmarked) [Itraconazole, itraconazole]",–,–,–,–,> 10000,> 10000,> 10000,> 10000,activity against EV-D68 strains in words (four EV-D68 strains; RD cells): failed to inhibit; EC50 (EV-D68 Fermon strain): 290 to 10000 nM
"OC(c1cc(C(F)(F)F)nc2c(C(F)(F)F)cccc12)C1CCCCN1 (centres unmarked) [Mefloquine, mefloquine]",–,–,–,–,> 10000,> 10000,> 10000,> 10000,–
"CC(=O)Oc1ccccc1C(=O)Nc1ncc([N+](=O)[O-])s1 [Nitazoxanide, nitazoxanide]",–,–,–,–,> 10000,> 10000,> 10000,> 10000,–
CCOC(=O)C1=C[C@@H](OC(CC)CC)[C@H](NC(C)=O)[C@@H](N)C1 [Oseltamivir],> 10000,> 10000,> 10000,> 10000,–,–,–,–,–
"COc1ccc(OCc2ccc(COc3c(Cl)cccc3Cl)cc2)c(Cl)c1 [Pocapavir, pocapavir]",–,–,–,–,–,–,–,–,"EC50 [1, 16]: > 10000 nM; EC50 [2, 17]: > 10000 nM; activity against EV-D68 strains in words (four EV-D68 strains; RD cells): inactive; EC50 [3, 18]: > 10000 nM; EC50 [4, 19]: > 10000 nM"
"CCOC(=O)/C=C/[C@H](C[C@@H]1CCNC1=O)NC(=O)[C@@H](CC(=O)[C@@H](NC(=O)c1cc(C)on1)C(C)C)Cc1ccc(F)cc1 [Rupintrivir, rupintrivir]",2 ± 0.5,3.7 ± 7,1.5 ± 3,4.6 ± 1.6,–,–,–,–,"EC50 (four EV-D68 strains; Enterovirus D, EVD68, RD): 1.5 to 5.1 nM"
C#CC[C@@H](C(=O)N[C@H](/C=C/C(=O)OCC)C[C@@H]1CCNC1=O)n1cccc(NC(=O)c2cc(C)on2)c1=O [V-7404],–,–,–,–,3.5 ± 0.6,24 ± 7,27 ± 8,26 ± 4,"EC50 (four EV-D68 strains; Enterovirus D, EVD68, RD): 1.5 to 5.1 nM"
B1,–,–,–,–,–,–,–,–,"DAS181 protein per unit of activity ([6]; pH 5.5): 0.77 µg; specific activity ([6]; pH 5.5, one unit releases 10 nmol MU in 10 minutes): 1,300 U/mg protein; potency in words [7]: low micromolar potency; EC50 [1, 16]: 1.2 ± 0.9 nM; EC50 [2, 17]: 4 ± 1.6 nM; EC50 (four EV-D68 strains; RD cells, all four EV-D68 strains): 1.2 to 4 nM; EC50 [3, 18]: 2.6 ± 1.2 nM; EC50 [8, 20]: 3.2 ± 1 nM; EC50 [8, 21]: 4 ± 1.2 nM; EC50 [8, 22]: 4 ± 1.6 nM; EC50 [9, 20]: 2.7 ± 0.4 nM; EC50 [9, 21]: 3.4 ± 1 nM; EC50 [9, 22]: 2.6 ± 1.2 nM; EC50 (EV-D68 strain Fermon; [20]): 1 ± 0.1 nM; EC50 (EV-D68 strain Fermon; [21]): 3.6 ± 1.5 nM; EC50 (EV-D68 strain Fermon; [22]): 1.2 ± 0.9 nM; EC50 [10, 20]: 2 ± 0.1 nM; EC50 [10, 21]: 4.3 ± 0.4 nM; EC50 [10, 22]: 3.6 ± 1.5 nM; EC50 [4, 19]: 3.6 ± 1.5 nM"
